Assay [1] relates to Erk1/2 phosphorylation in AC cells. The assay can be described thus: Erk1/2 phosphorylation on Western blots in AC fibroblasts. The format is cell-based, human. To be noted: about 10 nM OA, about 10 nM BK, about 10 min. The protocol: (§1) After serum-starving overnight, cells are treated as such: 1) BK treatment for about 10 min, 2) pretreatment with about 10 nM OA for about 15 min followed by BK treatment and another dose of OA for about 10 min. Reactions are terminated, cells are lysed in a lysis buffer, and the extent of Erk1/2 phosphorylation and levels of the total Erk1/2 are determined using Western blots. After normalizing with signals of the total Erk1/2, the ratio of BK-stimulated Erk1/2 phosphorylation in the presence and absence of OA is calculated. […]
(§2) Erk1/2 phosphorylation from different treatments was determined on Western blots using an anti-phospho-Erk1/2 antibody (Cell Signaling Technology), the total amount of Erk1/2 protein loaded on the SDS gel was determined by an anti-regular Erk1/2 antibody (Upstate Biotechnology), and was used to normalize the detected phospho-Erk1/2 signals.
(§3) (1) Quantitative PCR values for PP2A mRNA in each sample of 19 AC and 19 AD cell lines were normalized by those of GPDH in the same sample. […] The densitometric values for PP2A were normalized by those of annexin 11 and quantified with UN-SCAN-IT software (Silk Scientific, Inc.) (3) To assess Erk1/2 phosphorylation, ratios for phospho-Erk1/2 over those of the total Erk1/2 were calculated. […]
(In western blotting, separated proteins are transferred to a membrane and probed.)

In assay [2] the test system is Erk1/2 phosphorylation in AD cells. The assay is described as follows: Erk1/2 phosphorylation on Western blots in AD fibroblasts. The assay is classed as cell-based, human. Particulars: about 10 nM OA, about 10 nM BK, about 10 min. As to the method: as §1, §2, §3

Entries after “also recorded” stand apart in the source; their conditions may differ.

On to `C=C1[C@@H](O)[C@@H]2O[C@]3(CC[C@H](/C=C/[C@@H](C)[C@@H]4CC(C)=C[C@@]5(O[C@H](C[C@@](C)(O)C(=O)O)CC[C@H]5O)O4)O3)CC[C@H]2O[C@@H]1[C@@H](O)C[C@H](C)[C@H]1O[C@@]2(CCCCO2)CC[C@H]1C` [OA, okadiac acid], for which the “Erk1/2 dephosphorylation after BK stimulation in the presence of OA” value in assay [1] is recorded as “inhibited Erk1/2 dephosphorylation; also recorded: significantly inhibited”. Besides, the “BK-stimulated Erk1/2 phosphorylation on addition of OA” value in assay [2] is “did not further increase Erk1/2 phosphorylation”.
